According to article PMC9670909 (ACS Omega, 2022):

Legend:
MAO-B = biological target: T1, MAO-B (Homo sapiens, UniProt P27338); test: MAO-B inhibitory assay; type: biochemical; conditions: MAO-B IC50, kynuramine 30 μM, potassium phosphate buffer pH 7.4, 37 °C, 20 min
T1 sequence (P27338 1-520): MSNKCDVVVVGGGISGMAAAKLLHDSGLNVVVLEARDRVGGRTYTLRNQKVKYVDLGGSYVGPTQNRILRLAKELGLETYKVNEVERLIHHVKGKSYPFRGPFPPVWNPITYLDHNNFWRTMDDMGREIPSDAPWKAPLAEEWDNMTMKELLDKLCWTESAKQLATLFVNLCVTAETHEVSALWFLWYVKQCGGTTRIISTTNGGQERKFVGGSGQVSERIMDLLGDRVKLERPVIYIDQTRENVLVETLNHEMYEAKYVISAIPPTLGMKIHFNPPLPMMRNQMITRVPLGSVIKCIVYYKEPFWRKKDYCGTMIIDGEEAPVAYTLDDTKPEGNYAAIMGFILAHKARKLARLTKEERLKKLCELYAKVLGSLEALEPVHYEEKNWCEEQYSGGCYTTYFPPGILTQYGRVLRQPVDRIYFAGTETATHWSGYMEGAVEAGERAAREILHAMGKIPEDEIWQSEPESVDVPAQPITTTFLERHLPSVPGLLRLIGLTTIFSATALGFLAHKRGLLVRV

Human recombinant MAO-A = biological target: T2, Human recombinant MAO-A (Homo sapiens, UniProt P21397); test: MAO-A inhibitory assay; type: biochemical
T2 sequence (P21397 1-527): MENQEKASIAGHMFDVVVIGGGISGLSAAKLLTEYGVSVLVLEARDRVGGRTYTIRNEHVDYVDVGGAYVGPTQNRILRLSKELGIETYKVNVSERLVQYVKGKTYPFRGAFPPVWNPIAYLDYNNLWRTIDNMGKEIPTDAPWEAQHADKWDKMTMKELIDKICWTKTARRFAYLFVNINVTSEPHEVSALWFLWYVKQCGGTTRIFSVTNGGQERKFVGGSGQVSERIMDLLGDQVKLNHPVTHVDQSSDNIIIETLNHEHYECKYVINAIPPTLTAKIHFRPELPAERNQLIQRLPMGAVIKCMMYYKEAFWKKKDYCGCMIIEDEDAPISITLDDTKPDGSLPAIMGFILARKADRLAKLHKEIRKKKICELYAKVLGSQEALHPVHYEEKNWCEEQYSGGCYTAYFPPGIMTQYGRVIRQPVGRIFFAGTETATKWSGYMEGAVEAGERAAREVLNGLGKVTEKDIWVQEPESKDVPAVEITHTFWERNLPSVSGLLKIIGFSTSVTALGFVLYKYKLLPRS

IC50 (MAO-B) [µM] | IC50 (Human recombinant MAO-A) [µM] | Structure (SMILES)
52.8 | > 100 | COc1cc(OC)c2c(c1)C(O)(c1cc(C)cc(OC)c1OC)OC2=O (stereo not drawn) [compound 12, 3-(2,3-Dimethoxy-5-methylphenyl)-3-hydroxy-5,7-dimethoxyisobenzofuran-1(3H)-one]
> 100 | 62.1 | COc1cc(OC)c(Br)c(C(=O)c2cc(C)cc(OC)c2OC)c1 [compound 16, (2-Bromo-3,5-dimethoxyphenyl)(2,3-dimethoxy-5-methylphenyl)methanone]
> 100 | > 100 | COc1cc(OC)c(C#N)c(C(=O)c2cc(C)cc(OC)c2OC)c1 [compound 17, 2-(2,3-Dimethoxy-5-methylbenzoyl)-4,6-dimethoxybenzonitrile]
> 100 | > 100 | COC(=O)c1c(OC)cc(OC)cc1C(=O)c1cc(C)cc(OC)c1OC [compound 19, Methyl 2-(2,3-dimethoxy-5-methylbenzoyl)-4,6-dimethoxybenzoate]
61.6 | 47 | CCOC(=O)c1c(OC)cc(OC)cc1C(=O)c1cc(C)cc(OC)c1OC [compound 21, Ethyl 2-(2,3-dimethoxy-5-methylbenzoyl)-4,6-dimethoxybenzoate]
> 100 | > 100 | COc1cc(C)cc(C(=O)c2cc(OCc3ccccc3)cc(OCc3ccccc3)c2)c1OC [compound 25, (3,5-Bis(benzyloxy)phenyl)(2,3-dimethoxy-5-methylphenyl)methanone]
> 100 | > 100 | COc1cc(C)cc(C(=O)c2cc(OCc3ccccc3)cc(OCc3ccccc3)c2Br)c1OC [compound 26, (3,5-Bis(benzyloxy)-2-bromophenyl)(2,3-dimethoxy-5-methylphenyl)methanone]
> 100 | > 100 | COc1cc(C)cc(C(=O)c2cc(OCc3ccccc3)cc(OCc3ccccc3)c2C#N)c1OC [compound 27, 2,4-Bis(benzyloxy)-6-(2,3-dimethoxy-5-methylbenzoyl)benzonitrile]
43.7 | 14.8 | COc1cc(C)cc(C(=O)c2cc(O)cc(O)c2Br)c1O [compound 31, (2-Bromo-3,5-dihydroxyphenyl)(2-hydroxy-3-methoxy-5-methylphenyl)methanone]
53.6 | 34.1 | COCOc1cc(O)cc(C(=O)c2cc(C)cc(OC)c2O)c1Br [compound 32, (2-Bromo-5-hydroxy-3-(methoxymethoxy)phenyl) (2-hydroxy-3-methoxy-5-methylphenyl)methanone]
> 100 | 27.5 | COCOc1cc(OC)cc(C(=O)c2cc(C)cc(OC)c2OC)c1Br [compound 33, (2-Bromo-5-methoxy-3-(methoxymethoxy)phenyl)(2,3-dimethoxy-5-methylphenyl)methanone]
> 100 | 24.8 | COCOc1cc(OC)cc(C(=O)c2cc(C)cc(OC)c2OC)c1C#N [compound 34, 2-(2,3-Dimethoxy-5-methylbenzoyl)-4-methoxy-6-(methoxymethoxy)benzonitrile]
> 100 | > 100 | COCOc1cc(OC)cc2c1C(=O)NC2(O)c1cc(C)cc(OC)c1OC (stereo not drawn) [compound 35, 3-(2,3-Dimethoxy-5-methylphenyl)-3-hydroxy-5-methoxy-7-(methoxymethoxy)isoindolin-1-one]
38.4 | 31.9 | COc1cc(O)c2c(c1)C(O)(c1cc(C)cc(OC)c1OC)NC2=O (stereo not drawn) [compound 36, 3-(2,3-Dimethoxy-5-methylphenyl)-3,7-dihydroxy-5-methoxyisoindolin-1-one]
18.6 | 52.2 | COCOc1cc(OCc2ccccc2)cc(C(=O)c2cc(C)cc(OC)c2OCc2ccccc2)c1Br [compound 37, (5-(Benzyloxy)-2-bromo-3-(methoxymethoxy)phenyl) (2-(benzyloxy)-3-methoxy-5-methylphenyl)methanone]
94.3 | 20.6 | COc1cc(C)cc(C(=O)c2cc(OCc3ccccc3)cc(O)c2Br)c1OCc1ccccc1 [compound 38, (5-(Benzyloxy)-2-bromo-3-hydroxyphenyl) (2-(benzyloxy)-3-methoxy-5-methylphenyl)methanone]
> 100 | > 100 | COc1cc(OCc2ccccc2)cc(C(=O)c2cc(C)cc(OC)c2OCc2ccccc2)c1Br [compound 39, (5-(Benzyloxy)-2-bromo-3-methoxyphenyl) (2-(benzyloxy)-3-methoxy-5-methylphenyl)methanone]
> 100 | > 100 | COc1cc(OCc2ccccc2)cc(C(=O)c2cc(C)cc(OC)c2OCc2ccccc2)c1C#N [compound 40, (5-(Benzyloxy)-2-cyano-3-methoxyphenyl) (2-(benzyloxy)-3-methoxy-5-methylphenyl)methanone]
